Measurements from patent US10570431B2, “Compositions comprising a polypeptide having cellulolytic enhancing activity and a heterocyclic compound and uses thereof” (priority 2013, dated 2020).
Where two headings read alike, the source gives them in different places.

Tests used:
Format in all cases: biochemical
[1] = system: Trichoderma reesei cellulase composition; details: milled washed PCS, no GH61
[2] = system: Trichoderma reesei cellulase composition; details: milled unwashed PCS, compound 5 mM, no GH61
[3] = system: Trichoderma reesei cellulase composition; test: Hydrolysis of AVICEL (microcrystalline cellulose) by the T. reesei cellulase composition, with/without GH61 polypeptide or heterocyclic compound; details: for heterocyclic compound effect(no GH61) (ratio of percent conversion with compound to without) / heterocyclic compound effect(no GH61): AVICEL; for Percent conversion of AVICEL: GH61 present, no heterocyclic compound, one experiment
[4] = compound 10 mM, cellulase 2 mg per g cellulose, especially at day 3
[5] = 1 day, 13.7±0.6% in the absence of GH61
[6] = 3 days, 28.6±0.4% in the absence of GH61
[7] = 7 days, 44±1% in the absence of GH61

O=C(CO)c1ccccc1 [2-hydroxyacetophenone]
heterocyclic compound effect(no GH61) ([1]; compound 5 mM, 1, 3 and 7 days): slightly decreased | heterocyclic compound effect(no GH61) ([2]; cellulase 2 mg per g cellulose, 1, 3 and 7 days): greater than 1 | heterocyclic compound effect(no GH61) (ratio of percent conversion with compound to without) ([3]; compound 5 mM, 1, 3 and 7 days): less than 1 | heterocyclic compound effect(no GH61) ([3]; compound 10 mM, 1 and 3 days): significantly decreased the day 3 hydrolysis

Cc1cc(O)no1 [3-hydroxy-5-methylisoxazole]
heterocyclic compound effect(no GH61) (ratio of percent conversion with compound to without) ([3]; compound 5 mM, 1, 3 and 7 days): ~1

O=Cc1ccc(CO)o1 [5-(hydroxymethyl)furfural]
heterocyclic compound effect(no GH61) ([3]; compound 1 mM, 1, 3 and 7 days): greater than 1

CC1=C(O)C(=O)CO1 [4-hydroxy-5-methyl-3-furanone]
heterocyclic compound effect(no GH61) [1, 4]: < 1

O=C1O[C@H](CO)[C@H](O)[C@H]1O [D-xylonic γ-lactone]
heterocyclic compound effect(no GH61) ([3]; compound 5 mM, day 1 or 7): ~1

O=C1O[C@H](CO)[C@@H](O)[C@H]1O [ribonic γ-lactone]
heterocyclic compound effect(no GH61) (ratio of percent conversion with compound to without) ([3]; compound 5 mM, 1, 3 and 7 days): less than 1

O=CC(=O)C[C@H](O)[C@H](O)CO [3-deoxyglucosone, 3-deoxy-D-erythro-hexosulose]
heterocyclic compound effect(no GH61) (ratio of percent conversion with compound to without) ([3]; compound 5 mM, 1, 3 and 7 days): ~1

OC[C@H]1OC=C[C@@H](O)[C@@H]1O [D-glucal, 1,5-anhydro-2-deoxy-D-arabino-hex-1-enitol]
heterocyclic compound effect(no GH61) (ratio of percent conversion with compound to without) ([3]; compound 5 mM, 1, 3 and 7 days): less than 1

O=C1OC(C(O)CO)C(=O)C1=O (stereo not drawn) [dehydroascorbic acid, [1,2-dihydroxyethyl]furan-2,3,4(5H)-trione]
heterocyclic compound effect(no GH61) ([1]; compound 5 mM, 1, 3 and 7 days): very slightly decreased | heterocyclic compound effect(no GH61) [1, 4]: < 1 | heterocyclic compound effect(no GH61) ([2]; mid to late stages of hydrolysis): greater than 1 | heterocyclic compound effect(no GH61) (ratio of percent conversion with compound to without) ([3]; compound 5 mM, 1, 3 and 7 days): very slightly decreased | heterocyclic compound effect(no GH61) ([3]; compound 10 mM, 1 and 3 days): very slightly decreased the day 3 hydrolysis

C=C(C)CO [2-methyl-2-propen-1-ol]
heterocyclic compound effect(no GH61) (ratio of percent conversion with compound to without) ([3]; compound 5 mM, 1, 3 and 7 days): decreased later stages of hydrolysis

O=c1cc(O)c2ccccc2o1 [4-hydroxycoumarin]
heterocyclic compound effect(no GH61) ([3]; compound 1 mM, 1, 3 and 7 days): very slightly decreased

B1: Aspergillus fumigatus GH61B polypeptide: GH61 polypeptide having cellulolytic enhancing activity (SEQ ID NO: 30), recombinantly prepared using Aspergillus oryzae JaL355 as a host (protein, listed as Aspergillus fumigatus)
chain: MTLSKITSIAGLLASASLVAGHGFVSGIVADGKYYGGYLVNQYPYMSNPPDTIAWSTTATDLGFVDGTGYQSPDIICHRDAKNGKLTATVAAGSQIEFQWTTWPESHHGPLITYLAPCNGDCATVDKTTLKFVKIAAQGLIDGSNPPGVWADDEMIANNNTATVTIPASYAPGNYVLRHEIIALHSAGNLNGAQNYPQCFNIQITGGGSAQGSGTAGTSLYKNTDPGIKFDIYSDLSGGYPIPGPALFNA
Percent conversion of AVICEL [3, 5]: 13.6±0.2% | Percent conversion of AVICEL [3, 6]: 29±1% | Percent conversion of AVICEL [3, 7]: 46±2%

B2: Thielavia terrestris GH61E polypeptide: GH61E polypeptide having cellulolytic enhancing activity (SEQ ID NO: 8), recombinantly prepared using Trichoderma reesei RutC30 as a host (protein, listed as Thielavia terrestris)
chain: MLANGAIVFLAAALGVSGHYTWPRVNDGADWQQVRKADNWQDNGYVGDVTSPQIRCFQATPSPAPSVLNTTAGSTVTYWANPDVYHPGPVQFYMARVPDGEDINSWNGDGAVWFKVYEDHPTFGAQLTWPSTGKSSFAVPIPPCIKSGYYLLRAEQIGLHVAQSVGGAQFYISCAQLSVTGGGSTEPPNKVAFPGAYSATDPGILINIYYPVPTSYQNPGPAVFSC
Percent conversion of AVICEL ([3]; 1 day, 19.5±0.2% in the absence of GH61): 20.5±0.5% | Percent conversion of AVICEL ([3]; 3 days, 27±1% in the absence of GH61): 27±1% | Percent conversion of AVICEL ([3]; 7 days, 43±1% in the absence of GH61): 43.0±0.3%

B3: Talaromyces stipitatus GH61A polypeptide: GH61A polypeptide having cellulolytic enhancing activity (SEQ ID NO: 164), recombinantly prepared as described in Example 3 (protein, listed as Talaromyces stipitatus)
chain: MPSTKVAALSAVLALASTVAGHGFVQNIVIDGKSYTGYLVNQYPYQSNPPAVIGWSTTATDLGFVDGSGYTNPDIICHKNAKPGQLSAPVAAGGKVELEWTTWPESHHGPVISYLANCNGDCTTVDKTKLEFVKIDQRGLIDDSNPPGTWAADQLIAANNSWTVTIPESIAPGNYVLRHEIIALHSANNATGAQNYPQCINLQITGSGTANPSGTPGEKLYTPTDPGILVNIYQSLSSYVIPGPTLWSGAAAHVVATAAGSATGVASATATPTTLVTAVSSPTGAPSVVTPEAPSVTSFAPVVTVTDVVTVTTVITTTIS
Percent conversion of AVICEL [3, 5]: 13.6±0.4% | Percent conversion of AVICEL [3, 6]: 27.9±0.2% | Percent conversion of AVICEL [3, 7]: 44.7±0.5%

B4: Trichoderma reesei GH61B polypeptide: GH61B polypeptide having cellulolytic enhancing activity (SEQ ID NO: 16), recombinantly prepared using Aspergillus oryzae JaL250 as a host (protein, listed as Trichoderma reesei)
chain: MKSCAILAALGCLAGSVLGHGQVQNFTINGQYNQGFILDYYYQKQNTGHFPNVAGWYAEDLDLGFISPDQYTTPDIVCHKNAAPGAISATAAAGSNIVFQWGPGVWPHPYGPIVTYVVECSGSCTTVNKNNLRWVKIQEAGINYNTQVWAQQDLINQGNKWTVKIPSSLRPGNYVFRHELLAAHGASSANGMQNYPQCVNIAVTGSGTKALPAGTPATQLYKPTDPGILFNPYTTITSYTIPGPALWQG
Percent conversion of AVICEL [3, 5]: 13.5±0.4% | Percent conversion of AVICEL [3, 6]: 29±2% | Percent conversion of AVICEL [3, 7]: 44±2%

B5: Penicillium pinophilum GH61A polypeptide: GH61A polypeptide having cellulolytic enhancing activity (SEQ ID NO: 32), recombinantly prepared using Aspergillus oryzae HowB101 as a host (protein, listed as Penicillium pinophilum)
chain: MPSTKVAALSAVLALASTVAGHGFVQNIVIDGKSYSGYLVNQFPYESNPPAVIGWATTATDLGFVAPSEYTNADIICHKNATPGALSAPVAAGGTVELQWTTWPDSHHGPVISYLANCNGNCSTVDKTKLDFVKIDQGGLIDDTTPPGTWASDKLIAANNSWTVTIPSTIAPGNYVLRHEIIALHSAGNADGAQNYPQCINLEITGSGTAAPSGTAGEKLYTSTDPGILVNIYQSLSTYVIPGPTLWSGAANGAVATGSATAVATTATASATATPTTLVTSVAPASSTFATAVVTTVAPAVTDVVTVTDVVTVTTVITTTVL
Percent conversion of AVICEL [3, 5]: 14.1±0.4% | Percent conversion of AVICEL [3, 6]: 28.5±0.5% | Percent conversion of AVICEL [3, 7]: 46±2%
